Laboratory results taken from patent EP1790349A1.

Experiments:
[1] = tested on: Streptococcus aureus; conditions: disc 6: NaCl 400 mg/mL (control)
[2] = tested on: Salmonella tifi; format: cell-based; conditions: disc 6: NaCl 400 mg/mL (control)
[3] = tested on: Shigella dysenteriae; format: cell-based; conditions: disc 6: NaCl 400 mg/mL (control)
[4] = tested on: Neisseria meningitides; conditions: disc 6: NaCl 400 mg/mL (control)
[5] = tested on: Shigella flexneri; conditions: disc 6: NaCl 400 mg/mL (control)
[6] = tested on: Pseudomona aeruginosa; conditions: disc 6: NaCl 400 mg/mL (control)
[7] = tested on: Streptococcus pneumoniae; conditions: disc 6: NaCl 400 mg/mL (control)
[8] = tested on: Streptococcus pyogenes; conditions: disc 6: NaCl 400 mg/mL (control)
[9] = tested on: Haemophilus influenzae; conditions: disc 6: NaCl 400 mg/mL (control)
[10] = tested on: Neisseria gonorrhoeae; conditions: disc 6: NaCl 400 mg/mL (control)
[11] = tested on: Proteus vulgaris; conditions: disc 6: NaCl 400 mg/mL (control)
[12] = tested on: Brucella suis; format: cell-based; conditions: disc 6: NaCl 400 mg/mL (control)
[13] = tested on: Klebsiela; conditions: disc 6: NaCl 400 mg/mL (control)
[14] = tested on: Escherichia coli; conditions: disc 6: NaCl 400 mg/mL (control)
[15] = tested on: Rauscher MuLV; test: Rauscher Murine Virus (Rauscher MuLV) system in vivo, splenomegaly; conditions: rivabirin control, dose not given; in comparison with infected animals that received no treatment

[Cl-].[Na+] [NaCl]
inhibitory halos [1]: 6 mm
inhibitory halos [2]: 6 mm
inhibitory halos [3]: 6 mm
inhibitory halos [4]: 6 mm
inhibitory halos [5]: 6 mm
inhibitory halos [6]: 6 mm
inhibitory halos [7]: 6 mm
inhibitory halos [8]: 6 mm
inhibitory halos [9]: 6 mm
inhibitory halos [10]: 14 mm
inhibitory halos [11]: 6 mm
inhibitory halos [12]: 6 mm
inhibitory halos [13]: 6 mm
inhibitory halos [14]: 6 mm

NC(=O)c1ncn([C@@H]2O[C@H](CO)[C@@H](O)[C@H]2O)n1 [rivabirin]
reduction of the spleen size [15]: 74%
